Assays:
[1] = target: Serine-protein kinase ATM (Homo sapiens, UniProt Q13315); assay: Inhibition of ATM
[2] = target: Dual specificity testis-specific protein kinase 1 (Homo sapiens, UniProt Q15569); assay: Inhibition of TESK1
[3] = target: Serine/threonine-protein kinase 16 (Homo sapiens, UniProt O75716); assay: Inhibition of STK16
[4] = target: Dual specificity mitogen-activated protein kinase kinase 5 (Homo sapiens, UniProt Q13163); assay: Inhibition of MAP2K5
[5] = target: Tyrosine-protein kinase ABL2 (Homo sapiens, UniProt P42684); assay: Inhibition of ABL2
[6] = target: Serine/threonine-protein kinase mTOR (Homo sapiens, UniProt P42345); assay: Inhibition of mTOR
[7] = target: Membrane-associated tyrosine- and threonine-specific cdc2-inhibitory kinase (Homo sapiens, UniProt Q99640); assay: Inhibition of PKMYT1
Membrane-associated tyrosine- and threonine-specific cdc2-inhibitory kinase, sequence (Q99640 whole entry): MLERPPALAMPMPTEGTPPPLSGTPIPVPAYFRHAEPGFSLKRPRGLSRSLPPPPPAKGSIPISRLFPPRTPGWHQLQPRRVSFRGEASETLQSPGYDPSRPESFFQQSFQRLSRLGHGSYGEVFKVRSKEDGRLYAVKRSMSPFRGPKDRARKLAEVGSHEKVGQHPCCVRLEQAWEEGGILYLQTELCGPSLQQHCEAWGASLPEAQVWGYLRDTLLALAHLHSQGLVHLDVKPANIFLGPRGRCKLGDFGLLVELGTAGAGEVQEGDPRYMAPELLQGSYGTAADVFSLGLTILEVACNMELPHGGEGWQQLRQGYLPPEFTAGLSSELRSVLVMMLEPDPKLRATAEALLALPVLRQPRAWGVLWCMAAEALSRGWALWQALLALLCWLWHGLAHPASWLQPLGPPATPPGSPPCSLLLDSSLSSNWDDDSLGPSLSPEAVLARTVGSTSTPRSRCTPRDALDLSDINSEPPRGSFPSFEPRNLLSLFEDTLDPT

[8] = target: Proto-oncogene tyrosine-protein kinase Src (Homo sapiens, UniProt P12931); assay: Inhibition of SRC
[9] = target: Protein-tyrosine kinase 6 (Homo sapiens, UniProt Q13882); assay: Inhibition of PTK6
Protein-tyrosine kinase 6, sequence (Q13882 whole entry): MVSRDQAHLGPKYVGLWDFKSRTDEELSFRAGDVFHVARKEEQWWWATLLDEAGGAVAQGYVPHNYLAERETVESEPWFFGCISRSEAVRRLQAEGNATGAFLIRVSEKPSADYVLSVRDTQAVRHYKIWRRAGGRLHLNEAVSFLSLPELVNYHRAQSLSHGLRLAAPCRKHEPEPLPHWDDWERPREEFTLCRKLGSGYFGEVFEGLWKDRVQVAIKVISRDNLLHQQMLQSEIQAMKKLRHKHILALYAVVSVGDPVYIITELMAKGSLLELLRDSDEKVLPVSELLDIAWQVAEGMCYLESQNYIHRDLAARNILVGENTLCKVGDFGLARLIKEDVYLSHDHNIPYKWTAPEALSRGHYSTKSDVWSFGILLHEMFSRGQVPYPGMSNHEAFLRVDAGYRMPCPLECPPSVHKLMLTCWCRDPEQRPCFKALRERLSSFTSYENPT

[10] = target: Casein kinase II subunit alpha (Homo sapiens, UniProt P68400); assay: Inhibition of CK2a1
Casein kinase II subunit alpha, sequence (P68400 whole entry): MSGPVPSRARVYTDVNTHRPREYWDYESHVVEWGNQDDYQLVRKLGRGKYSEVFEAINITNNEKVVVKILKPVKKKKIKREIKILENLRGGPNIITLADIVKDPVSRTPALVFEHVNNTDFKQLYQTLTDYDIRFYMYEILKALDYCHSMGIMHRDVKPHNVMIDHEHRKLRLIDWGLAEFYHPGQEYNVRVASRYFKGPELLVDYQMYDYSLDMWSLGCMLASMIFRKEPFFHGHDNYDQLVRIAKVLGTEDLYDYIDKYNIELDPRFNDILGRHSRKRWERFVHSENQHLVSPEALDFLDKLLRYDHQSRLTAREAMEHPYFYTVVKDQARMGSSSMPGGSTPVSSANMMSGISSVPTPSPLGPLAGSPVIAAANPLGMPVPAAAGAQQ

[11] = target: Mitogen-activated protein kinase kinase kinase 2 (Homo sapiens, UniProt Q9Y2U5); assay: Inhibition of MAP3K2
[12] = target: Phosphatidylinositol 3-kinase catalytic subunit type 3 (Homo sapiens, UniProt Q8NEB9); assay: Inhibition of PIK3C3
Phosphatidylinositol 3-kinase catalytic subunit type 3, sequence (Q8NEB9 whole entry): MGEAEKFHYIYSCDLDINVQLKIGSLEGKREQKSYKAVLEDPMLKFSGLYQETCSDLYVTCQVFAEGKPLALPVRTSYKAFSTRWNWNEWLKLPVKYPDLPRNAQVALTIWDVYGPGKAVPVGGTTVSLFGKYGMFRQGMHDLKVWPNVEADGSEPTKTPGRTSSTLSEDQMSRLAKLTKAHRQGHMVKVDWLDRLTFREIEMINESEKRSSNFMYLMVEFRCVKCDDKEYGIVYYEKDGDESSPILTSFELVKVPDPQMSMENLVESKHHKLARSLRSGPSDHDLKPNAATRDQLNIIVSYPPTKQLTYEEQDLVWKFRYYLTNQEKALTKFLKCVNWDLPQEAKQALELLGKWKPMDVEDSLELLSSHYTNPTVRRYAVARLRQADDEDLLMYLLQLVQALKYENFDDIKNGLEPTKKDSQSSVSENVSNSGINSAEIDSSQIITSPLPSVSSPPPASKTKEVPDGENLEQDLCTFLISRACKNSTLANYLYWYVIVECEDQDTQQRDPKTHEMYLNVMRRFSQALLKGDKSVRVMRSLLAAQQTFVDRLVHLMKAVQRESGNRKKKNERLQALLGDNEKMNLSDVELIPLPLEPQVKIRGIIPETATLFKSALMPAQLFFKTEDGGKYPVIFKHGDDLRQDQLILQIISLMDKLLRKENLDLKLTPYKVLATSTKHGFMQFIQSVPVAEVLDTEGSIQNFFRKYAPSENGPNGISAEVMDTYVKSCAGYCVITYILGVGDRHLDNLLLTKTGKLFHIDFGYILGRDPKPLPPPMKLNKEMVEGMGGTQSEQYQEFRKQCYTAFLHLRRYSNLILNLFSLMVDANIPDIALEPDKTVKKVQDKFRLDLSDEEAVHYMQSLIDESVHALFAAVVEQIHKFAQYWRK

Activin receptor type-1B = Activin receptor type-1B (Homo sapiens, UniProt P36896); assay: Inhibition of ACVR1B
[13] = target: Phosphatidylinositol 4,5-bisphosphate 3-kinase catalytic subunit delta isoform/gamma isoform (Homo sapiens, UniProt P48736+O00329); assay: Inhibition of PI3Kgamma/delta by neutrophil migration assay
[14] = target: Serine/threonine-protein kinase NLK (Homo sapiens, UniProt Q9UBE8); assay: Inhibition of NLK
[15] = Clearance in cynomolgus monkey; format: ADME, organism-based, Macaca fascicularis; conditions: in vivo
[16] = target: Eukaryotic translation initiation factor 2-alpha kinase 1 (Homo sapiens, UniProt Q9BQI3); assay: Inhibition of EIF2AK1
[17] = target: Casein kinase I isoform delta (Homo sapiens, UniProt P48730); assay: Inhibition of CSNK1D
Casein kinase I isoform delta, sequence (P48730 whole entry, canonical isoform): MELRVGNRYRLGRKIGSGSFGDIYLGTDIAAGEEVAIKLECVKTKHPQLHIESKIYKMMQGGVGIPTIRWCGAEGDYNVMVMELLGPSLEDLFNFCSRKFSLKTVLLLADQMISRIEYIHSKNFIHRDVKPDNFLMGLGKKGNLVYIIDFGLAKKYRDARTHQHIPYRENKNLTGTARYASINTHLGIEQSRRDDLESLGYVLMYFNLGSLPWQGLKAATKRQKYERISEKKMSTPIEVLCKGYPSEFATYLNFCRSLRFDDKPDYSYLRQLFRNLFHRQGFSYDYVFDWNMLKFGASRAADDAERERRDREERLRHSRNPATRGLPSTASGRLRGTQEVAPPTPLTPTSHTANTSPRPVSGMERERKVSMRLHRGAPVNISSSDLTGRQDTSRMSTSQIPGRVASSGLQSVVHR

[18] = target: Calcium/calmodulin-dependent protein kinase type II subunit delta (Homo sapiens, UniProt Q13557); assay: Inhibition of CAMK2D
Calcium/calmodulin-dependent protein kinase type II subunit delta, sequence (Q13557 whole entry): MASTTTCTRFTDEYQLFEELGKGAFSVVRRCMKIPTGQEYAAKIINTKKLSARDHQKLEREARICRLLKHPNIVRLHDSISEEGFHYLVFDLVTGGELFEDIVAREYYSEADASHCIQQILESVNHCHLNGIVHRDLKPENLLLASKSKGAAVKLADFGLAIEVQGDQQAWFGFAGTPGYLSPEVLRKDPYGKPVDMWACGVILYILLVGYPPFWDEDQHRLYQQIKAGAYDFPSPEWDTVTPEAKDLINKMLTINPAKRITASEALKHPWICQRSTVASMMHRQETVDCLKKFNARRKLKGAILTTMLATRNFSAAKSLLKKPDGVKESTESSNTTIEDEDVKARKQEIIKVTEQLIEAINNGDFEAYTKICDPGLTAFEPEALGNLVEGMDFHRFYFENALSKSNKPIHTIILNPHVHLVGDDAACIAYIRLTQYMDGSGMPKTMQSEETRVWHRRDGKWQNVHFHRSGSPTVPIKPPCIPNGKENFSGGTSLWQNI

[19] = target: Cyclin-dependent kinase 5 (Homo sapiens, UniProt Q00535); assay: Inhibition of CDK5
Activin receptor type-1 = Activin receptor type-1 (Homo sapiens, UniProt Q04771); assay: Inhibition of ACVR1
[20] = target: Atypical kinase COQ8B, mitochondrial (Homo sapiens, UniProt Q96D53); assay: Inhibition of ADCK4
Atypical kinase COQ8B, mitochondrial, sequence (Q96D53 whole entry): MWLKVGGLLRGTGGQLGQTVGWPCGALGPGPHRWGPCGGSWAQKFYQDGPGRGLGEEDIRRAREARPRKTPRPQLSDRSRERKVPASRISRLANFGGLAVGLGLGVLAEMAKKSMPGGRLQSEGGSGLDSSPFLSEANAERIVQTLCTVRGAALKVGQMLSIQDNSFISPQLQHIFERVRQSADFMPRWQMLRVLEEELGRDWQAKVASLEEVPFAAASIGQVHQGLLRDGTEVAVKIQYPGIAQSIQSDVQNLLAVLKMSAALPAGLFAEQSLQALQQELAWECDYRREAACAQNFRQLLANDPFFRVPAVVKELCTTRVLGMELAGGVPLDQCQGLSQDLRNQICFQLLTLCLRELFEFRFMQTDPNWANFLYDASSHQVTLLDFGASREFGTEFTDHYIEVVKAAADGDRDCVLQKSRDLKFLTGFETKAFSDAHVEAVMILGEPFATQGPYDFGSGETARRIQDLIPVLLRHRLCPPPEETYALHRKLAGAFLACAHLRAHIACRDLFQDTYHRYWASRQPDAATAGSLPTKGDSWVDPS

Activin receptor type-2B = Activin receptor type-2B (Homo sapiens, UniProt Q13705); assay: Inhibition of ACVR2B
Activin receptor type-2B, sequence (Q13705 whole entry, canonical isoform): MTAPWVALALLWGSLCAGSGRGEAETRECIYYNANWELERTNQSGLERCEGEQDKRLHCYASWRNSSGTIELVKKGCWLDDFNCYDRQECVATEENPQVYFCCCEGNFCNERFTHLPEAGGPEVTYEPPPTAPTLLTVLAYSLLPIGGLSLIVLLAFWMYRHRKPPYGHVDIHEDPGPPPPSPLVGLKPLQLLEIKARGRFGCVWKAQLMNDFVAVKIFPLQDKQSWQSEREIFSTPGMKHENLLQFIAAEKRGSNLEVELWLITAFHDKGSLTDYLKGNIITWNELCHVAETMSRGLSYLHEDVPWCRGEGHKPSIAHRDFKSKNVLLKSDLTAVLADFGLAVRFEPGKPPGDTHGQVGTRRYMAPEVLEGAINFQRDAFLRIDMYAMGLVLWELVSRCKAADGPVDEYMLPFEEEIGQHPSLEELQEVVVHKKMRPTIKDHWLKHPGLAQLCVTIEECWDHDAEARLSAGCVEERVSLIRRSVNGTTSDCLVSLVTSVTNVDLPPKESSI

[21] = target: Phosphatidylinositol 4,5-bisphosphate 3-kinase catalytic subunit gamma isoform (Homo sapiens, UniProt P48736); assay: Inhibition of PI3Kgamma by kinobeads assay
[22] = target: Dual specificity protein kinase CLK1 (Homo sapiens, UniProt P49759); assay: Inhibition of CLK1
Dual specificity protein kinase CLK1, sequence (P49759 whole entry): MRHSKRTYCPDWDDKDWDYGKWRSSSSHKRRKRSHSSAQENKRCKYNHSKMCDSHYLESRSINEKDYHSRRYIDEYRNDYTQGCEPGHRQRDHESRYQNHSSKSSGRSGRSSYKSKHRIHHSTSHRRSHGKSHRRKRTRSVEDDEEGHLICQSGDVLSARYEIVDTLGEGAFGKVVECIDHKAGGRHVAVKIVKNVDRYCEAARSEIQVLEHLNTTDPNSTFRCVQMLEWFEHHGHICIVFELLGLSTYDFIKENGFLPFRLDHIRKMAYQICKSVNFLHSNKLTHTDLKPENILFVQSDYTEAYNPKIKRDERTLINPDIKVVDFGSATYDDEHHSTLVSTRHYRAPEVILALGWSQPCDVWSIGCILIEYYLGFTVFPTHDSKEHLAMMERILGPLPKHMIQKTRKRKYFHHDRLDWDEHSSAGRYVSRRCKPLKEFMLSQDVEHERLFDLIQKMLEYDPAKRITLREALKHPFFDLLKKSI

[23] = target: Macrophage-stimulating protein receptor (Homo sapiens, UniProt Q04912); assay: Inhibition of MST1R
[24] = target: Phosphatidylinositol 4-kinase beta (Homo sapiens, UniProt Q9UBF8); assay: Inhibition of PIK4Cb
[25] = target: Dual specificity testis-specific protein kinase 2 (Homo sapiens, UniProt Q96S53); assay: Inhibition of TESK2
[26] = target: Voltage-gated inwardly rectifying potassium channel KCNH2 (Homo sapiens, UniProt Q12809); assay: Inhibition of human ERG at >250 uM by patch clamp method
[27] = target: Atypical kinase COQ8A, mitochondrial (Homo sapiens, UniProt Q8NI60); assay: Inhibition of CABC1
[28] = target: Casein kinase I isoform alpha (Homo sapiens, UniProt P48729); assay: Inhibition of CSNK1A1
[29] = target: Serine/threonine-protein kinase SIK3 (Homo sapiens, UniProt Q9Y2K2); assay: Inhibition of KIAA0999

Serine/threonine-protein kinase 16, sequence (O75716 whole entry): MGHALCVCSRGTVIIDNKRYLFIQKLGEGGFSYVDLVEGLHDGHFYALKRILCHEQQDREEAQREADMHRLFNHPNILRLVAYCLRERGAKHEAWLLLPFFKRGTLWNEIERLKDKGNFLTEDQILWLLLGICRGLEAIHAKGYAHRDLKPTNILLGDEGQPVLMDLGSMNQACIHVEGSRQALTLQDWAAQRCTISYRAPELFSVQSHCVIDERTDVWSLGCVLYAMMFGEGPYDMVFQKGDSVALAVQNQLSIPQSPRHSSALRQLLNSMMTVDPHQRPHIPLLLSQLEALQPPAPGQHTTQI

Compound CC(C)(C)NS(=O)(=O)c1cncc(-c2ccn3nc(N)nc3c2)c1 has an IC50 [1] of over 10 µM, an IC50 [2] of over 10 µM and an IC50 [3] of over 10 µM. For the same compound, the IC50 [4] was over 10 µM, the IC50 [5] was over 10 µM and the IC50 [6] was over 10 µM. The IC50 [7] was over 10 µM, the IC50 [8] was over 10 µM and the IC50 [9] was over 10 µM. For the same compound, the IC50 [10] was over 10 µM, the IC50 [11] was over 10 µM and the IC50 [12] was over 5.89 µM. For the same compound, the IC50 (Activin receptor type-1B) was over 10 µM, the pIC50 [13] was 6.3 and the IC50 [14] was over 10 µM. The clearance [15] was 1.6 mL/min/kg, the IC50 [16] was over 10 µM and the IC50 [17] was over 10 µM. For the same compound, the IC50 [18] was over 10 µM, the IC50 [19] was over 10 µM and the IC50 (Activin receptor type-1) was over 10 µM. The IC50 [20] was over 10 µM, the IC50 (Activin receptor type-2B) was over 10 µM and the IC50 [21] was 12.6 nM. It also gave an IC50 [22] of over 10 µM, an IC50 [23] of over 10 µM and an IC50 [24] of over 10 µM. For the same compound, the IC50 [25] was over 10 µM, the “inhibition (INH)” value [26] was “Not Active” and the IC50 [27] was over 10 µM. It also gave an IC50 [28] of 9.12 µM and an IC50 [29] of over 10 µM.

From ChEMBL document CHEMBL2203257 (Bioorg Med Chem Lett, 2012)
